# Publication PMC8207694, “Nucleoside transporter-guided cytarabine-conjugated liposomes for intracellular methotrexate delivery and cooperative choriocarcinoma therapy” (Journal of Nanobiotechnology, 2021)
# Assays:
# [1] = parameters: method as in PMID 22510625; details: liver damage, abdominal pain, gastrointestinal reactions, mucosal damage, bone marrow suppression; cited from earlier work
# [2] = Pharmacokinetic study after intravenous administration; type: in vivo, SD rats; details: rats
# Procedure: The advanced Automatic Blood Collection System (Instech, USA) was applied to study the pharmacokinetic feature of various MTX formulations. Female SD rats (200–220 g) were acclimatized at 25 ± 2 °C for 1 week before the experiments. Animals were randomized into 3 groups and each group contained 3 rats. Group I, II, and III were intravenously given free MTX, Lipo@MTX, and Cy-Lipo@MTX respectively at a dose of 10 mg MTX-equivalent/kg body weight. Blood (200 μL) was obtained at 0.25, 0.5, 1, 2, 4, 8, 12, 24, 48, and 72 h through jugular vein after administration. 150 μL of plasma was combined with 450 μL acetonitrile to precipitate proteins, and drug content of samples was analyzed by HPLC. The pharmacokinetic software (DAS 2.0) was used to assess key pharmacokinetic parameters including mean residence time (MRT), area under the curve (AUC), peak plasma concentration (Cmax), half-life (t1/2), and time to maximal plasma concentration (Tmax).
# JEG-3 cells [3] = test: Cell structure damage (bio-TEM); type: cell-based, human; details: 1 μg/mL MTX-equivalent, 24 h
# Procedure: Bio-TEM was applied for observing the cell structure and mitochondrial damage effect induced by MTX formulations. Briefly, JEG-3 cells were seeded in a 6 cm dish. After culturing for 24 h, the cells were treated with free MTX, MTX + Cy-lipid, Lipo@MTX, or Cy-Lipo@MTX at an equivalent MTX concentration (1 μg/mL) for another 24 h. Then, cells were digested, centrifuged, and fixed with 2.5% glutaraldehyde solution at 4 °C for more than 4 h. Finally, the bio-TEM observation was performed after sample preparation.
# JEG-3 tumor models [4] = test: In vivo antitumor study; parameters: species or system BALB/c nude mice
# Procedure: (§1) When tumors were 50–100 mm^3 in size, nude mice were intravenously administrated with saline or MTX formulations (free MTX, MTX + Cy-lipid, Lipo@MTX, or Cy-Lipo@MTX, 5 mg MTX-equivalent/kg body weight, each group contained 6 mice) on day 6, 9, 12, 14, 18, and 21. On the 24th day, the mice were sacrificed, and the tumors, as well as the main organs, were excised, weighed, washed three times using saline, and subjected to fixation with 10% neutral buffered formalin. The tumor tissues were collected for H&E, TUNEL, and Ki67 staining. […] The survival of large tumor-bearing mice (300–500 mm^3 in size) was analyzed via Kaplan–Meier analysis (each group contained 5 mice).
# JEG-3 cells [5] = test: Mitochondrial transmembrane potential (JC-1, CLSM); type: cell-based, human; details: 1 μg/mL MTX-equivalent, 24 h
# Procedure: Mitochondrial transmembrane potential changes induced by various MTX formulations were evaluated by the JC-1 probe. Briefly, JEG-3 cells were added to the confocal dish. Following culture for 24 h, the cells were treated with free MTX, MTX + Cy-lipid, Lipo@MTX, or Cy-Lipo@MTX at an equivalent MTX concentration (1 μg/mL) for 24 h. JC-1 solution was exchanged for cold PBS following two JC-1 staining buffer washes, after which samples were assessed by CLSM at λex (488 nm)/λem (530 nm) for green fluorescence and λex (525 nm)/λem (590 nm) for red fluorescence.
# JEG-3 cells [6] = test: Cell cycle analysis (PI, flow cytometry); type: cell-based, human; details: 1 μg/mL MTX-equivalent, 24 h; control 5.44 ± 0.97%
# Procedure: For cell cycle analysis, JEG-3 cells (10^5/well) were added to 6-well plates for 24 h and were then treated with culture medium or MTX formulation-contained culture medium at an equivalent MTX concentration (1 μg/mL) for another 24 h. Then, JEG-3 cells were collected (1000 rpm, 5 min) and fixed using 70% ethanol for 8 h at 4℃. After resuspended in PI/RNase Staining buffer for 30 min, the cell cycle was determined with flow cytometry.
# JEG-3 cells [7] = test: In vitro cytotoxicity, MTT assay; type: cell-based; details: Homo sapiens; JEG-3, 48 h, MTX-equivalent
# Procedure: (§2) The cytotoxicities of MTX formulations were assessed via MTT assay. The groups were as follows: MTX solution (free MTX), MTX plus DSPE-PEG2k-Cy (abbreviated as MTX + Cy-lipid, the molar ratio of Cy-lipid to MTX was about 1:5.0), Lipo@MTX, and Cy-Lipo@MTX. JEG-3 cells or Pricell-0051 cells were added to 96-well plates (1 × 10^4 cells/well). After 24 h, cells were rinsed using PBS and treated with MTX formulations (0.001–30 μg MTX-equivalent/mL) for 48 h at 37 °C [40]. Viability was assessed by adding 20 μL of MTT (5 mg/mL) per well for 4 h. Next, the medium was removed and formazan crystals were dissolved via the addition of 150 μL of DMSO. A microplate reader (Varioskan Flash 3001, Thermo Fisher Scientific, USA) was then used to assess absorbance at 490 nm.
# Pricell-0051 cells = test: In vitro cytotoxicity, MTT assay; type: cell-based; details: Homo sapiens; Pricell-0051, 48 h, MTX-equivalent
# Procedure: as §2
# [8] = parameters: method as in PMID 28415433; details: cited from earlier work
# JEG-3 tumor models [9] = test: Survival of large tumor-bearing mice (Kaplan-Meier); type: in vivo; details: mice bearing larger tumors 300-500 mm^3; saline 26 days
# Procedure: as §1
# [10] = Safety: body weight and H&E of primary organs during antitumor study; type: in vivo, mice
# Procedure: Healthy mice were administered the Lipo@MTX or Cy-Lipo@MTX dispersion via tail vein (10 mg MTX-equivalent/kg body weight every three days) for five times (each group contained 3 mice). Saline was injected as a control. After the administration, blood biochemical indices were measured. During the in vivo antitumor studies, the body weight and activity status of mice in each group were monitored for evaluating the side effects of the MTX formulations. After in vivo antitumor studies, the primary organs of each group were harvested for H&E staining.
# [11] = female, Sprague-Dawley (SD), rat, plasma, iv, 10 mg/kg, 10 mg MTX-equivalent/kg
compound,measurement,setting,value
"CN(Cc1cnc2nc(N)nc(N)c2n1)c1ccc(C(=O)N[C@@H](CCC(=O)O)C(=O)O)cc1 [free MTX, Methotrexate]",incidence rate of adverse reactions during systemic administration,[1],more than 30%
same,AUC(0-t),[2]; [11],62400 ± 21500 ng·h/mL
same,Cmax,[2]; [11],13500 ± 1960 ng/mL
same,clearance,[2]; [11],1.43 mL/min
same,MRT last,"[2]; female, Sprague-Dawley (SD), rat, plasma, iv, 10 mg/kg, i.v., 10 mg MTX-equivalent/kg, read-out: MRT(0-t)",6.27 ± 2.52 h
same,half-life,"[2]; female, Sprague-Dawley (SD), rat, plasma, iv, 10 mg/kg, i.v., 10 mg MTX-equivalent/kg, read-out: t1/2β (converted)",5.23 ± 2.72 h
same,concentration at 0.25 h,"[2]; female, Sprague-Dawley (SD), rat, plasma, iv, after 0.25 h, i.v., 10 mg/kg, read-out: plasma MTX concentration",13500 ± 1960 ng/mL
same,concentration at 4 h,"[2]; female, Sprague-Dawley (SD), rat, plasma, iv, after 4 h, i.v., 10 mg/kg, read-out: plasma MTX concentration",4590 ± 1610 ng/mL
same,concentration at 12 h,"[2]; female, Sprague-Dawley (SD), rat, plasma, iv, after 12 h, i.v., 10 mg/kg, read-out: plasma MTX concentration",1140 ± 490 ng/mL
same,concentration at 24 h,"[2]; female, Sprague-Dawley (SD), rat, plasma, iv, after 24 h, i.v., 10 mg/kg, read-out: plasma MTX concentration",430 ± 360 ng/mL
same,Vss,"[2]; i.v., 10 mg MTX-equivalent/kg",0.58 ± 0.10 mg/kg/(mg/mL)
same,cell structure and mitochondria (bio-TEM),JEG-3 cells [3],cell structure was intact and the cell boundary was clearly visible
same,tumor volume,"JEG-3 tumor models [4]; day 24, 5 mg MTX-equivalent/kg i.v., six treatments, saline 2211.35 ± 236.66",1210.14 ± 285.62 mm^3
same,tumor weight,"JEG-3 tumor models [4]; end of treatment cycle (day 24), saline 3.24 ± 0.60",2.35 ± 0.32 g
same,effect on mitochondrial transmembrane potential (JC-1 red fluorescence),JEG-3 cells [5],a certain destructive effect on the MMP
same,JEG-3 cells arrested at the S phase,JEG-3 cells [6],11.59 ± 1.53%
same,IC50,JEG-3 cells [7],19.6 µg/mL
same,IC50,Pricell-0051 cells,32.2 µg/mL
same,solubility in acidic versus neutral solutions,[8],solubility of MTX in acidic solutions is greater than that in neutral solutions
same,median survival time,JEG-3 tumor models [9],28 days
same,H&E-stained slices of major organs,[10]; end of treatment,many edematous glomeruli
same,body weight change during treatment,"[10]; tumor-bearing mice, 5 mg MTX-equivalent/kg",severe weight loss
